Assay results from publication PMC12020424, “Identification and Validation of Cyclic Peptides with Mucin-Selective, Location-Specific Binding in the Gastrointestinal Tract” (ACS Nano, 2025).
Bridge positions count the residues as written; N and C are the ends. Ends that are not written are not given here.

Assays:
MUC5AC = MUC5AC (Homo sapiens, UniProt P98088); assay: Phage ELISA on MUC5AC; type: binding; settings: phage clones displaying the peptide, 10^7 PFU/μL, MUC5AC-coated plate, anti-M13/HRP, TMB, 450 nm, blank subtracted, three wells; vs random library and insertless phage
From the text: We next sought to validate the binding efficiency of these identified phage clones. We tested phage clones displaying peptides M2.1, M2.2, M2.3, and M2.4 for binding to MUC2, and phage clones displaying peptides M5.1, M5.2, M5.3, and M5.4 for binding to MUC5AC. We utilized a bacteriophage enzyme-linked immunosorbent assay to test the binding of the peptide hits to the specific target mucins, MUC2 and MUC5AC (Figure 2d). The spectrophotometer reported absorbance values at 450 nm. The intensity of the absorbance signal is proportional to the amount of peptide-mucin binding present in each sample. The negative controls (library samples and insertless samples) served as references for nonspecific binding.
First, mucin was coated onto the surface of a plastic plate overnight using the same process as that performed for the original phage display. The next morning, three wells of each phage clone were prepared, with each phage solution having a titer of 10^7 PFU/μL to ensure a fair comparison between the clones. […]
However, instead of eluting the bound phage, 100 μL of 1:2000 anti-M13/HRP mouse monoclonal antibody was added to each well, and the antibody was allowed to incubate with the wells for 30 min. […] The resulting solutions were analyzed by absorbance spectroscopy at a wavelength of 450 nm to determine the relative amount of phage present in each well.

[1] = system: MUC5AC-containing stomach tissue; assay: Ex vivo fluorescent binding to stomach tissue; set-up: species or system porcine; settings: MUC5AC-selective peptides to stomach
From the text: After identifying the peptide hits for each mucin, we tested their binding in an ex vivo setting (Figure S1), evaluating their interaction with mucin-containing porcine tissue and semiquantitatively representing it through fluorescent imaging (Figure 3a). The cyclic peptides were synthesized and conjugated to a fluorophore, Alexa Fluor 647 (AF647), at the N-terminus to allow fluorescent imaging to be used to semiquantitatively measure the peptides’ ex vivo tissue binding, compared to free AF647 and AF647 conjugated to wheat germ agglutinin (WGA), a known lectin for glycoproteins.[40] […] Porcine GI tissue was used due to its similarity in mucin expression compared to human GI tissue and its capacity to source large surface areas of tissue for experiments.[41],[42] Representative IVIS images are shown in Figure 3b-e, where the first four columns represent the four identified peptides (M2.1–M2.4 in Figure 3b,c, M5.1–M5.4 in Figure 3d,e), the fifth column represents WGA-AF647, and the sixth column represents AF647. The “score” results for the peptide ligands are presented in Figure 3f,g for the mucins of interest, with Tables S2–S5 and Figure S3 detailing results for the other tissues (the equation for calculating the “score” is found in the Materials and Methodssection). […] We also examined selectivity by incubating peptides on nontarget tissues. Figure 3h,i depicts the “selectivity” results for the MUC2-selective and MUC5AC-selective peptides, respectively. Selectivity was calculated by determining the ratio of the “score” for a particular mucin to the sum of the “scores” for all mucins (see the Materials and Methods section for the equation used).
The top-performing hits from phage display were tested on ex vivo segments of porcine mucin-containing tissues (jejunal, stomach, and esophageal tissues) obtained from local abattoirs or laboratory-maintained pigs. Tissue was used either immediately after acquisition or after storage at −80 °C; tissue was used at most 1 week after acquisition and storage at −80 °C. After acquisition and equilibration to room temperature, the tissue was washed twice with 25 mL (each) of cold 1× PBS to remove undigested food and other debris. After washing and cleaning, the tissue was mounted between two magnetic plates with holes corresponding to a 48-well plate, as previously described,[72] such that the luminal side of the tissue was facing up (Figure S1). After the tissue was mounted, the amount of peptide/protein corresponding to 40 μg of AF647 was suspended in 200 μL of 1× PBS and added to the wells created by the magnetic plates. This was done 3× for each formulation to perform the experiment in triplicate. In addition, plain 1× PBS was added to one well to serve as the background measurement. […] After washing was complete, fluorescence imaging was performed using an IVIS Spectrum fluorescent imaging system (PerkinElmer), with an automatically calculated exposure time (usually ∼1 s), a 20 cm × 20 cm field of view, and an excitation/emission of 640/680 nm, respectively. The imaging results were analyzed using Living Image software to calculate the total fluorescence intensity for each well, and the results for each hit or control were averaged across different wells. […]
To better account for tissue-to-tissue variability, the results for each trial were reported as scores rather than using the raw fluorescence intensity. […]

Overall nanoparticle “score” ([1]; scaled between free AF647 (0) and WGA-AF647 (1), mean across trials n = 3): 0.800 | Selectivity ([1]; score for MUC5AC tissue / sum of scores for all mucins, n = 3): 0.370
Sequence: CTDKASSSC (disulfide 1-9 (inferred)) [Peptide M5.1, CX7C cyclic peptide hit for MUC5AC]
phage ELISA binding vs negative controls (MUC5AC): significantly greater binding to MUC5AC than the random library and insertless phage
